Active and inactive are the calls of the source. How the calls were made is not given here.
System: CCRIS mutagenicity, Ames/micronucleus/aberration tests
Experiment: CCRIS mutagenicity studies

SMILES: CC(=O)CC(C)C
- mutagenic call (Test System: AMES SALMONELLA TYPHIMURIUM, Strain/Indicator: TA97, Metabolic Activation: HAMSTER, LIVER, S-9, AROCLOR 1254 (10 OR 30%), Method: PREINCUBATION): inactive; negative
- mutagenic call (Test System: AMES SALMONELLA TYPHIMURIUM, Strain/Indicator: TA97, Metabolic Activation: NONE, Method: PREINCUBATION): inactive; negative
- mutagenic call (Test System: AMES SALMONELLA TYPHIMURIUM, Strain/Indicator: TA97, Metabolic Activation: RAT, LIVER, S-9, AROCLOR 1254 (10 OR 30%), Method: PREINCUBATION): inactive; negative
- mutagenic call (Test System: AMES SALMONELLA TYPHIMURIUM, Strain/Indicator: TA98, Metabolic Activation: HAMSTER, LIVER, S-9, AROCLOR 1254 (10%), Method: PREINCUBATION): inactive; negative
- mutagenic call (Test System: AMES SALMONELLA TYPHIMURIUM, Strain/Indicator: TA98, Metabolic Activation: HAMSTER, LIVER, S-9, AROCLOR 1254 (30%), Method: PREINCUBATION): inactive; negative
- mutagenic call (Test System: AMES SALMONELLA TYPHIMURIUM, Strain/Indicator: TA98, Metabolic Activation: NONE, Method: PREINCUBATION): inactive; negative
- mutagenic call (Test System: AMES SALMONELLA TYPHIMURIUM, Strain/Indicator: TA98, Metabolic Activation: RAT, LIVER, S-9, AROCLOR 1254 (10%), Method: PREINCUBATION): inactive; negative
- mutagenic call (Test System: AMES SALMONELLA TYPHIMURIUM, Strain/Indicator: TA98, Metabolic Activation: RAT, LIVER, S-9, AROCLOR 1254 (30%), Method: PREINCUBATION): inactive; negative
- mutagenic call (Test System: AMES SALMONELLA TYPHIMURIUM, Strain/Indicator: TA98, Metabolic Activation: RAT, LIVER, S-9, AROCLOR 1254, Method: PREINCUBATION): inactive; negative
- mutagenic call (Test System: AMES SALMONELLA TYPHIMURIUM, Strain/Indicator: TA100, Metabolic Activation: HAMSTER, LIVER, S-9, AROCLOR 1254 (10%), Method: PREINCUBATION): inactive; negative
- mutagenic call (Test System: AMES SALMONELLA TYPHIMURIUM, Strain/Indicator: TA100, Metabolic Activation: HAMSTER, LIVER, S-9, AROCLOR 1254 (30%), Method: PREINCUBATION): inactive; negative
- mutagenic call (Test System: AMES SALMONELLA TYPHIMURIUM, Strain/Indicator: TA100, Metabolic Activation: NONE, Method: PREINCUBATION): inactive; negative
- mutagenic call (Test System: AMES SALMONELLA TYPHIMURIUM, Strain/Indicator: TA100, Metabolic Activation: RAT, LIVER, S-9, AROCLOR 1254 (10%), Method: PREINCUBATION): inactive; negative
- mutagenic call (Test System: AMES SALMONELLA TYPHIMURIUM, Strain/Indicator: TA100, Metabolic Activation: RAT, LIVER, S-9, AROCLOR 1254 (30%), Method: PREINCUBATION): inactive; negative
- mutagenic call (Test System: AMES SALMONELLA TYPHIMURIUM, Strain/Indicator: TA100, Metabolic Activation: RAT, LIVER, S-9, AROCLOR 1254, Method: PREINCUBATION): inactive; negative
- mutagenic call (Test System: AMES SALMONELLA TYPHIMURIUM, Strain/Indicator: TA1535, Metabolic Activation: HAMSTER, LIVER, S-9, AROCLOR 1254 (10%), Method: PREINCUBATION): inactive; negative
- mutagenic call (Test System: AMES SALMONELLA TYPHIMURIUM, Strain/Indicator: TA1535, Metabolic Activation: HAMSTER, LIVER, S-9, AROCLOR 1254 (30%), Method: PREINCUBATION): inactive; negative
- mutagenic call (Test System: AMES SALMONELLA TYPHIMURIUM, Strain/Indicator: TA1535, Metabolic Activation: NONE, Method: PREINCUBATION): inactive; negative
- mutagenic call (Test System: AMES SALMONELLA TYPHIMURIUM, Strain/Indicator: TA1535, Metabolic Activation: RAT, LIVER, S-9, AROCLOR 1254 (10%), Method: PREINCUBATION): inactive; negative
- mutagenic call (Test System: AMES SALMONELLA TYPHIMURIUM, Strain/Indicator: TA1535, Metabolic Activation: RAT, LIVER, S-9, AROCLOR 1254 (30%), Method: PREINCUBATION): inactive; negative
- mutagenic call (Test System: AMES SALMONELLA TYPHIMURIUM, Strain/Indicator: TA1535, Metabolic Activation: RAT, LIVER, S-9, AROCLOR 1254, Method: PREINCUBATION): inactive; negative
- mutagenic call (Test System: AMES SALMONELLA TYPHIMURIUM, Strain/Indicator: TA1537, Metabolic Activation: NONE, Method: PREINCUBATION): inactive; negative
- mutagenic call (Test System: AMES SALMONELLA TYPHIMURIUM, Strain/Indicator: TA1537, Metabolic Activation: RAT, LIVER, S-9, AROCLOR 1254, Method: PREINCUBATION): inactive; negative
- mutagenic call (Test System: AMES SALMONELLA TYPHIMURIUM, Strain/Indicator: TA1538, Metabolic Activation: NONE, Method: PREINCUBATION): inactive; negative
- mutagenic call (Test System: AMES SALMONELLA TYPHIMURIUM, Strain/Indicator: TA1538, Metabolic Activation: RAT, LIVER, S-9, AROCLOR 1254, Method: PREINCUBATION): inactive; negative
- mutagenic call (Test System: MOUSE LYMPHOMA, Strain/Indicator: L5178Y (TK+/TK-), Metabolic Activation: NONE, Method: SUSPENSION/PLATE): active; positive
- mutagenic call (Test System: MOUSE LYMPHOMA, Strain/Indicator: L5178Y (TK+/TK-), Metabolic Activation: RAT, LIVER, S-9, AROCLOR 1242 AND AROCLOR 1254 (2:1), Method: SUSPENSION/PLATE): inactive; negative

SMILES: CCOC(=O)C(=NNc1ccc(-c2ccc(NN=C(C(=O)OCC)C(=O)OCC)c(OC)c2)cc1OC)C(=O)OCC
- mutagenic call (Test System: AMES SALMONELLA TYPHIMURIUM, Strain/Indicator: TA98, Metabolic Activation: HAMSTER, LIVER, S-9, Method: PREINCUBATION (PRIVAL METHOD)): inactive; negative
